Columns and labels:
db/db mice [1] = assay: Serum EPO content of db/db mice; format: in vivo, mouse; set-up: serum EPO content: unit not given here; conditions: for serum EPO content: 6 weeks, db/db group 257.19±67.80 ng/L
Text: (§1) db/db mice are congenital obese type 2 DKD mice with spontaneous mutations in the leptin receptor (Leptin receptor, Lepr) due to a point mutation in the leptin receptor gene GT located on chromosome 4. The course of polyphagia, polyuria, diabetes and hyperglycemia is similar to that of humans, and it is currently the most widely used type 2 spontaneous animal model of DKD. The db/db mice have a series of complications with the aggravation of diabetes. The main pathological changes of renal tissue are the expansion of the glomerular mesangial interstitium, the thickening of the glomerular basement membrane, and the excessive accumulation of extracellular matrix. However, the glomerular mesangium of db/db mice changes relatively slowly, and the glomerular mesangium will not be dissolved or nodular glomerulosclerosis, and there is no progressive renal insufficiency.
(§2) Six-week-old db/db mice were purchased, and start the administration after adaptive feeding for 1 week (i.e., 7-week-old). TBN is administered twice a day (fixed by starting from 9:00-10:00 am and 3:00-4:00 pm, with an interval of 6 hours), and the positive control drug Losartan was administered once a day (fixed at 9:00-10:00 am) for 6 weeks.
At the end of the experiment, after rats were anesthetized, the blood was taken from the abdominal aorta, allowed to stand for 1 h, centrifuged at 3000 rmp for 10 min and with the supernatant collected, and serum erythropoietin levels were measured according to the kit instructions.

db/db mice [2] = assay: HE histopathology of kidney tissue in db/db mice; format: in vivo, mouse
Text: as §1, §2
The HE dyeing process is as shown in Example 9.

[3] = tested on: diabetic neuropathy model rats; assay: Thermal radiation stimulation in diabetic neuropathy model rats; format: in vivo, rat; conditions: TBN 30 mg/kg twice a day, 4 weeks of administration (8 weeks after STZ), P<0.05
Method: Modeling method: STZ was weighed and transferred to a centrifuge tube, wrapped with aluminum foil, kept away from light, and stored at −20° C. STZ sodium citrate solution is prepared when it is in need to use. The rats were fasted without water for 12 hours before injection. After weighing, the rats were injected with 55 mg/kg STZ intraperitoneally (STZ needs to be injected quickly, and the injection was completed within 10 minutes), and then returned to the cage to ensure that the rats had sufficient drinking water for 24 hours. Rats were injected with an equal volume of citrate buffer (pH 4.5). Four weeks after STZ injection, blood was collected from the tail vein, and the rats with blood glucose less than 16.7 mmol/L were eliminated; the taillick threshold temperature was increased, and the mechanical withdrawal threshold (MWT) was decreased, as the standard of a successful DPN model.
The animals were randomly divided into 3 groups (n=7), namely the normal control group, the model group, and the TBN (30 mg/kg) group. The normal group and the model group were injected with an equal volume of normal saline, and TBN was administered twice a day (fixed at 9:00-10:00 am and 3:00-4:00 pm), continuously for 4 weeks. […]

STZ-induced DKD rats [4] = assay: Body weight, water intake and food intake of STZ-induced DKD rats; format: in vivo, rat
Method: (§3) SD rats (200±10 g) were used as model animals, which were fasted for 12 h before injection. STZ was dissolved in citrate buffer at 1% concentration, and rats were fasted and intraperitoneally injected with 55 mg/kg STZ and placed in the cage, the rats being ensured with adequate water intake for 24 h. STZ injections need to be fast and complete within 10 minutes of injection. The normal control group was injected with an equal volume of pH 4.5 citric acid-sodium citrate buffer. The state of the animals (multiple drinking and polyuria) was observed. After 3 weeks of STZ injection, blood was collected from the tail vein, and fasting blood glucose ≥16.7 mmol/L was measured as the standard for diabetic nephropathy in rats.
(§4) DKD rats were randomly assigned to 6 groups and given with different drugs. After 6 weeks of administration, the experiment was terminated and the protective effect of the drug on DKD rats was observed.
The general condition and body weight changes after rat modeling were observed weekly. The general conditions include the activity, mental state, coat color, diet, water intake and urine volume of the rats. The amount of water and the amount of feed were recorded weekly.

STZ-induced DKD rats [5] = assay: Serum iron content of STZ-induced DKD rats; format: in vivo, rat
Method: Before the injection, the rats were fasted for 12 hours without water. After weighing, the rats were injected with 55 mg/kg STZ intraperitoneally (STZ needs to be injected quickly, and the injection was completed within 10 minutes), and then returned to the cage to ensure that the rats had sufficient drinking water for 24 hours. Rats were injected with an equal volume of citrate buffer (pH 4.5). After STZ injection for 3 weeks, blood was collected from the tail vein, and blood glucose ≥16.7 mmol/L was used as the criteria for the standard of the rats.
The route of administration is intragastric administration. TBN was administered twice a day (fixed at 9:00-10:00 am and 3:00-4:00 pm), and Losartan was administered once a day (fixed at 9:00-10:00 am) continuously for 6 weeks.
At the end of the experiment, after rats were anesthetized, blood was taken from the abdominal aorta. After standing for 1 hour, the rats were centrifuged at 3000 rpm for 10 minutes and stored in aliquots at −80° C. An automatic biochemical analyzer was used to detect the content of iron ions in the serum.

STZ-induced DKD rats [6] = assay: Kidney index of STZ-induced DKD rats; format: in vivo, rat; conditions: after 6 weeks of administration
Method: as §3, §4
After 6 weeks of administration, the kidney tissue was uniformly separated by an autoclave surgical instrument, and washed with normal saline. After the filter paper was blotted, the fine balance was weighed, and then stored in a refrigerator at −80° C. for use. Kidney index (relative to kidney weight) is kidney weight (mg)/body weight (g)[…].

## Cc1nc(C)c(/C=[N+](\[O-])C(C)(C)C)nc1C [TBN]
db/db mice [1]; 10 mg/kg
  serum EPO content: 265.04±79.32
db/db mice [1]; 30 mg/kg
  serum EPO content: 288.80±36.78
db/db mice [1]; each dose group of TBN
  increase in serum EPO content compared with positive control drug: stronger than that of the positive control drug
db/db mice [1]; spontaneous db/db mice, TBN administration
  serum EPO level: tendency to increase
db/db mice [2]; 30 mg/kg and 60 mg/kg dose groups
  degree of infiltration of kidney inflammatory cells vs db/db group: obviously improved
db/db mice [2]; TBN dose groups (10, 30, 60 mg/kg), in various degrees
  pathological structure of kidney injury (H&E): improvement
db/db mice [2]; TBN treatment groups, dose-dependent, more significantly for 30 mg/kg and 60 mg/kg
  glomerular area (glomerular surface): reduced
[3]
  pain threshold of heat stimulation (hindlimb lifting latency) vs model group: increase
STZ-induced DKD rats [4]; STZ-induced diabetic nephropathy rats, FIG. 1a
  body weight: no effect
STZ-induced DKD rats [4]; vs model group, FIG. 1b
  water intake: significantly lower
STZ-induced DKD rats [4]; vs model group, FIG. 1c
  food intake: significantly lower
STZ-induced DKD rats [5]; TBN high dose group, P<0.05 vs Vehicle
  increase in serum iron content: the most significant
STZ-induced DKD rats [5]; each administration group of TBN (10, 30, 60 mg/kg), dose-dependent
  serum iron content: increased
STZ-induced DKD rats [6]
  kidney index: significantly reduced
